Here are results for one substance from patent US6660722B2, “Therapeutical treatments” (Laboratoires Goemar S.A., priority 2001, dated 2003).

A short description of one data set: oral LD 50 in rats. It counts as in vivo. As to conditions: given orally in rats. The protocol: Its LD 50 is high and was determined as to be greater than 2000 mg/Kg given orally in rats; furthermore there are no special handling requirements.
Data set [1] concerns target cells of tumor cell line YAC-1. Briefly: in vitro cytotoxicity assay of NK cells (mouse splenocytes pre-treated with glucan) on YAC-1 target cells, CYTOTOX 96 LDH release. It counts as cell-based, Balb/c mice. On the set-up: stimulated NK cells more cytotoxic than the control: concentration or dose not given beside the values. To be noted: for NK cell killing more active than BEI: versus BEI-stimulated cell killing; for NK cell killing more active than lentinan: versus Lentinan-stimulated NK cell killing; for stimulated NK cells more cytotoxic than the control: versus unstimulated NK cells. The protocol:
In that respect, Applicants first carried out an in vitro cytotoxicity assay on spleen cells isolated from spleen of Balb/c mice by standard methods.
These tests were conducted to evaluate the effects of soluble laminarin on the cytotoxicity of NK (Natural Killer) cells of mouse and to compare these effects with those of two known glucans, ie.
The spleens isolated from the above said Balb/c mice were placed into Petri dishes containing RPMI 1640 medium obtained from Life Technologies USA, supplemented with 5% by weight of FCS (fetal calf serum from Life Technologies USA). The spleens were cut into small pieces and a suspension was made by pressing the minced spleens against the bottom of Petri dishes containing PBS (Phosphate Buffered Saline obtained from Biowhitaker Inc,8830 Biggsford Road, Walkersville, Md. 21793 USA). The thus obtained pieces of tissue were gently teased over stainless steel screens using a plunger of a 5-ml syringe. Large debris and cell clumps were removed by layering the cell suspension over 3 ml of heat-inactivated FCS for 10 minutes on ice. After elimination of erythrocytes by incubation during 10 seconds in distilled water and five washes in cold PBS, the thus obtained cells which are called splenocytes, were resuspended in PBS and counted.
The evaluation of the cytotoxicity of these cell suspensions was conducted by suing a non radioactive cytotoxicity assay marketed under the trademark CYTOTOX 96 by Promega, Madison, Wis., USA.
For these experiments, the splenocytes which are also called “effector cells” were pre-treated during 30 minutes by mixing the suspensions containing them respectively with soluble laminarin, with lentinan and with BEI glucan; the mixtures were subsequently incubated with suspensions of target cells of tumor cell line YAC-1 which is known to be relatively […] to normal inactivated N K cells.
The specificity of the assay was established by using the following three different ratios effector cells/target cells denoted ET: 10:1, 50:1 and 100:1.
For each ratio, 3 counts were carried out and experiments were repeated 3 times on 3 different days.
Controls consisted of effector cells incubated only with PBS.
More particularly, the above cell suspensions of splenocytes (effector cells) were diluted to 10^6 cells/ml and placed in individual wells of V-shaped 96-well microplates at a concentration of 0.1 ml/well.
Laminarin, lentinan and BEI glucan which occur in the form of powders, were added after dissolution in PBS at an identical concentration of 2 μg/ml in PBS and the plates were incubated for 30 minutes at 37° C. in an humidified CO2 incubator.
After incubation, the plates i.e. the incubated cells contained in the wells were washed three times with RPMI 1640 medium, and 50 μl of the suspension of target cell line YAC-1 were added in each well, respecting the above “effector cells/target cells” ratios or E T: 10:1, 50:1 and 100:1.
For each of these ratios, 3 individual wells were used, the number of target cells being respectively 10^4,2×10^3 and 1×10^3.
In addition, target cells for spontaneous release control, target cells for maximum release control and effector cells release control were introduced into appropriate wells, i.e. 3 individual wells for each concentration used.
Basically, it is necessary to obtain the values of spontaneous release from both target and effector cells, and these values serve as a background. The maximum release control serves as 100%.
After spinning the plates at 250 g for 5 minutes in a centrifuge, the plates were incubated for 4 hours at 35° C. in a humidified CO2 incubator.
For evaluating the cytotoxicity activity of the effector or N K cells, procedure was as follows, using the instructions of the manufacturer PROMEGA.
A quantity of 10 μl of lysis solution, included in the Kit, was added 45 min before the end of incubation into appropriate control wells, i.e. into wells with maximum release control. […]

Data set [2] can be described thus: solubility of soluble laminarin. It counts as physicochemical.
Data set [3] has as its system mouse breast cancer cell line 64 Ptas. Kind of data set: tumor growth in vivo in mice inoculated with breast cancer cells. As to conditions: daily intraperitoneal injection during 14 days; doses 100 and 250 μg per injection (dose of the value not stated). As to the method:
The above said data have been confirmed by additional experiments where the effects of soluble laminarin on tumor growth in vivo were evaluated; yeast derived glucan BEI was used for comparison.
In these additional experiments, mice were inoculated with mouse breast cancer cell line 64 Ptas. Experimental treatment was achieved by daily intraperitoneal injection during 14 days of two different doses of soluble laminarin and BEI diluted in PBS; the said two different doses were respectively 100 and 250 μg of laminarin per injection.
At the end of the 14 days treatment, the mice were killed, tumors were removed and weighted.

Turning to laminarin [soluble laminarin], the “LD 50” value in “oral LD 50 in rats” is “greater than 2000 mg/Kg”. Besides, in data set [1] (ET 10:1), the “NK cell killing more active than BEI” value was determined as 132%, the “NK cell killing more active than lentinan” value turned out to be 133% and the “stimulated NK cells more cytotoxic than the control” value stood at 245%. For the same substance, in data set [1] (ET 50:1), the “NK cell killing more active than BEI” value is 122%, the “NK cell killing more active than lentinan” value was 123% and the “stimulated NK cells more cytotoxic than the control” value was 196%. Besides, in data set [1] (ET 100:1), the “NK cell killing more active than BEI” value is recorded as 129%, the “NK cell killing more active than lentinan” value came to 130% and the “stimulated NK cells more cytotoxic than the control” value came out at 180%. Moreover, in data set [2] (ethanol, 2-propanol and acetone), the “solubility in ethanol, 2-propanol and acetone” value is “substantially insoluble”. Moreover, the water-soluble result in data set [2] (water) is given as “up to 60 g/l”. Moreover, the “weight of the tumors with respect to the weight of the tumors treated with the control” value in data set [3] was determined as 28%.
